Earlier results in US12414928B2, “Viral inactivation spray and gargling formulation” (priority 2021, dated 2025).

Legend:
enveloped virus = settings: in vitro, pH 4.0
[1] = test system: coronavirus disease 2019 (COVID-19)

Row | SMILES | enveloped virus inactivation (enveloped virus) | virus inactivation [1]
1 | N=C(N)NCCC[C@H](N)C(=O)O [L-Arginine] | 5 logs reduction | –
2 | Cl [Hydrochloric Acid] | – | 100%
